Laboratory results from patent US20220073475A1, “5-MEMBERED HETEROARYL COMPOUNDS CONTAINING A HYDROXAMATE MOIETY AND THEIR USE” (UNIVERSITE DE LILLE, priority 2019, published 2022).

Key:
TLM1 cells [1] = experiment: X-ray radiation in combination with compound, propidium iodide dead cells, ratio of corrected AUC; format: cell-based, canine; details: for Potency of X-ray radiations in combination with compound (in words): TLM1
Method: (§1) Canine melanoma TLM-1 cells are maintained in DMEM medium supplemented with GlutaMAX™, 10% fetal bovine serum, 1× Hepes and 1% penicillin-streptomycin.
TLM-1 cells were seeded with the BioTek MicroFlo™ dispenser in μClear® black 384-well plates (Greiner) at the density of 20,000 cells/mL in 50 μL. Compounds for pre-treatment were added 2 h after the seeding, using an Echo 550 (Labcyte). The next day, cells were washed five times with 40 μL media without phenol red with a plate washer (Hydrospeed, Tecan). Cells were irradiated with 4, 6, 8, 12, 16, 20 and 24 Gray (Gy). […] This step was repeated every 72 h after radiation. Plates were incubated at 37° C. and 5% CO2. […] 4 images per well were collected. Images were analyzed with Columbus software (Perkin Elmer). In this system we used predefined building blocks to measure different parameters on nuclei detected. We applied a threshold based on propidium iodide intensity in nuclei of controls to select and count dead cells. By dividing the number of dead cells by the number of nuclei detected we obtained the percentage of dead cells. AUC were determined in one experiment with triplicate incubates on percentage of cells labelled with propidium iodide and were corrected by the percentage of cells labelled with propidium iodide at 0 Gy. Ratio of AUC corrected was determined as followed: Activity=(Area of the dose-concentration curve of cytotoxic agent combined with one concentration of compound corrected by the effect of the compound alone at 0Gy)/(Area of the dose-concentration curve of radiation alone corrected by the effect of the vehicle at 0Gy).

TLM1 cells [2] = experiment: UV-C radiation in combination with compound, ratio of % propidium iodide labelled cells; format: cell-based, canine; details: for Potency of UV-C radiations in combination with compound (in words): TLM1
Method: as §1
Plates were incubated at 37° C. and 5% CO2. […] 4 images per well were collected. Images were analyzed with Columbus software (Perkin Elmer). In this system we used predefined building blocks to measure different parameters on nuclei detected. We applied a threshold based on propidium iodide intensity in nuclei of controls to select and count dead cells. By dividing the number of dead cells by the number of nuclei detected we obtained the percentage of dead cells.

RPMI 8226 cells = experiment: Epoxomicin (EPX) in combination with compound 3, Annexin V/PI flow cytometry; format: cell-based, human; details: RPMI 8226 (FIG. 1A), compound at 7.5 μM, 15 μM and 30 μM
Method: (§2) RPMI 8226 and MOPC315.BM cells were cultured in RPMI 1640 medium supplemented with L-glutamine, non-essential amino acids, 2-mercaptoethanol and 10% fetal calf serum.
(§3) Cells were seeded in 24-well culture plates at 150,000 cells/well/mL. […] Cells were treated with protease inhibitors for 24 and 48 hours before analysis for apoptosis and cell death by flow cytometry. The cells were centrifuged at 300×g for 5 minutes and washed with cold FACS buffer (PBS 1× with 2 mM EDTA and 0.5% BSA. Then the cells were resuspended in Annexin V binding buffer (BioLegend) at a concentration of 10^6 cells/mL, and 100 μL of each sample was transferred to a 5 mL FACS tube. 5 μL of Annexin V-FITC Ab (BioLegend) and 5 μL of propidium iodide (BioLegend) were added to each sample and incubated 15 min at RT. Finally, 400 μL of Annexin V binding buffer was added to each tube and the cells were analyzed using BD FACSCanto or BD Fortessa machines within an hour. Annexin+ but PI− cells were identified as apoptotic and Annexin+ PI+ as dead cells.

MOPC315.BM cells = experiment: as above; format: cell-based, murine; details: MOPC315.BM (FIG. 1B), compound at 7.5 μM, 15 μM and 30 μM
Method: as §2, §3

OPM2 cells = experiment: CFZ potency increase, ratio of CC50 of CFZ alone / with compound; format: cell-based, human
Outline: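 OPM2 cells (12,000/well, 0.2% DMSO) treated with compound plus carfilzomib, with NucView 488 caspase-3/7 substrate (1 μM) and Hoechst 33342, 37 °C; confocal imaging over time gives % apoptotic cells. CFZ CC50 from 4-parameter fits alone and with compound; activity = CC50 alone / CC50 with compound.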

HeLa cells = experiment: as above; format: cell-based, human; details: compound at 7.5 μM
Description: Human HeLa cells (uterine cervical carcinoma) are maintained in DMEM medium supplemented with GlutaMAX™, 10% fetal bovine serum and 1% penicillin-streptomycin.
(§4) We developed a cell-based, high content assay allowing the rapid detection and quantification of apoptotic cells. Caspase-3/7 activity was detected in real-time using the NucView™ 488 Caspase-3 substrate (Biotium), where the caspase-3/7 substrate peptide sequence DEVD is attached to a nucleic acid dye. The NucView™ 488 reagent crosses the plasma membrane to enter the cytoplasm, where the dye is unable to bind to DNA and remains non-fluorescent. Once the substrate has been cleaved by activated caspase-3/7 in apoptotic cells, the high-affinity DNA dye is released and migrates to the cell nucleus to stain the nucleus with a bright green fluorescence. All cell nuclei were also labeled with Hoechst 33342 (Ozyme).
(§5) For HeLa and MCF7 cells, briefly, cells were seeded in 384-microtiter well plate (1500 HeLa cells or 5000 MCF7 cells in 40 μL full medium per well) and let to attach overnight. Then the compound of the invention and the RE stressor were transferred to the cell culture plate using an Echo555 liquid handler (Labcyte) and 30 μL medium containing NucView™ and Hoechst 33342 were added. Final NucView™ 488 and Hoechst 33342 concentrations were 1 μM and 20 ng/mL, respectively. DMSO content was maintained at 0.2%. The microplates were incubated at 37° C. and 5% CO2 in an automated LiCONiC STR240 UB cell incubator, and images were acquired at various times at 405 nm and 488 nm with the high-resolution automated confocal microscope INCell 6000 (GE). Four fields per well were read with the 20× objective in a confocal mode. The BioCel workstation was managed by VWorks automation control software (Agilent).
(§6) For all cells, Columbus software (Perkin) was used for image quantification and analysis. First, Hoechst 33342 staining was used for an automated detection of nuclei, in which the mean fluorescence intensity for NucView™ 488 was quantified. Inspection of control cells at initial time was used to set a threshold level of NucView™ 488 fluorescence to separate non apoptotic cells from apoptotic cells. Finally, for each well, the result was expressed as percentage of apoptotic cells in the total cell population. CC50 values were calculated from concentration-response curves by a nonlinear regression analysis at four parameters using Excel Fit or GraphPad Prim softwares.
(§7) Activity=(% of apoptotic cells with cytotoxic agent in combination with compound of the invention)/(% of apoptotic cells with cytotoxic agent alone). • Ratio of CC50: The CC50 of the cytotoxic agent was calculated in absence and in presence of a compound of the invention.
(§8) Activity=(CC50 of agent alone)/(CC50 of agent with compound). • Ratio of AUC. Activity=(Area of the dose-concentration curve of cytotoxic agent combined with one concentration of compound)/(Area of the dose-concentration curve of cytotoxic agent alone). (Lehar J. et al, 2008 (molecular systems biology 4:215)).

MCF7 cells = experiment: as above; format: cell-based, human; details: MCF7, compound at 15 μM
Method: Human epithelial MCF7 cells (mammary gland adenocarcinoma) are maintained in EMEM medium supplemented with GlutaMAX™, 10% fetal bovine serum, 0.01 mg insulin and 1% penicillin-streptomycin.
as §4, §5, §6, §7, §8

SMILES | Potency of X-ray radiations in combination with compound (in words) (TLM1 cells [1]) | Potency of UV-C radiations in combination with compound (in words) (TLM1 cells [2]) | Cytotoxicity of epoxomicin in combination with compound (RPMI 8226 cells) | Cytotoxicity of epoxomicin in combination with compound (MOPC315.BM cells) | Activity: ratio (CC50 of CFZ alone)/(CC50 of CFZ in combination with compound of the invention) (OPM2 cells; OPM2, compound at 7.5 μM (Table 5)) | Activity: ratio (CC50 of CFZ alone)/(CC50 of CFZ in combination with compound of the invention) (OPM2 cells; OPM2, compound at 7.5 μM (Table 6)) | Activity: ratio (CC50 of CFZ alone)/(CC50 of CFZ in combination with compound of the invention) (HeLa cells) | Activity: ratio (CC50 of CFZ alone)/(CC50 of CFZ in combination with compound of the invention) (MCF7 cells) | Activity: ratio of corrected AUC of X-ray radiation in combination with compound / corrected AUC of X-ray radiation alone (TLM1 cells [1]; TLM1, compound at 30 μM) | Activity: ratio of percentage of cells labelling with propidium iodide, compound vs vehicle (TLM1 cells [2]; TLM1, 15 μM compound 24 h before and just after UV-C, 48 h after UV-C at 400 J/m^2, mean of three experiments)
O=C(C[C@@H](Cc1ccc2ccccc2c1)n1cc(CNC(=O)c2ccc(F)cc2)nn1)NO [Compound 3, 4-Fluoro-N-[1-(R-2-hydroxycarbamoyl-1-naphthalen-2-ylmethyl-ethyl)-1H-[1,2,3]-triazol-4-ylmethyl]-benzamide] | increase the potency | increase the potency | increased | increased | – | – | – | – | – | –
Cc1cc(C(=O)NCc2cn([C@@H](CC(=O)NO)Cc3ccc4ccccc4c3)nn2)ccc1F [Compound 80, 4-fluoro-N-[[1-[(1R)-3-(hydroxyamino)-1-(2-naphthylmethyl)-3-oxo-propyl]triazol-4-yl]methyl]-3-methyl-benzamide] | increase the potency | increase the potency | – | – | 2.2 | 2.2 | 3.6 | 2.4 | 2.7 | 2.3
